Measured values from US20200281937A1, “USL-311 FOR USE IN THE TREATMENT OF CANCER” (Proximagen, LLC, priority 2017, published 2020).

Experiments:
Format in all cases: in vivo
MBT2 (bladder cancer) = assay: Syngeneic subcutaneous tumour growth inhibition, MBT2; settings: MBT2 s.c. tumour in mice, 50 mg/kg p.o. 5 days out of 7, vs vehicle group
Experimental: (§1) Nine syngeneic cell lines from […] different cancer types (EMT-6 (breast cancer), MBT2 (bladder cancer), CT26 (colorectal cancer), B16F10small, B16BL6 (both melanoma), A20 (lymphoma), LL/2 (lung cancer), Renca (kidney cancer), H22 (liver cancer)) were cultured and when in exponential growth were inoculated in mice subcutaneously with tumour cells in 0.1 mL of PBS for tumour development. After the mean tumour size reached approximately 80-120 mm^3 the mice were treated with 6-{4-[1-(Propan-2-yl)piperidin-4-yl]-1,4-diazepan-1-yl}-N-(pyridin-4-yl)pyridine-2-carboxamide (50 mg/kg p.o. 5 days out of 7). Tumour volumes were measured twice weekly at least in two dimensions using a caliper, and the volume expressed in mm^3 using the formula: V=0.5 a×b^2 where a and b are the long and short diameters of the tumour, respectively. Tumour growth was measured and inhibition of tumour growth reported in comparison to a vehicle treated group. All groups contained 8 mice. If the tumours in a group reached an average volume of 2000 mm^3, the experiment was terminated.

H22 (liver cancer) = assay: Syngeneic subcutaneous tumour growth inhibition, H22; settings: H22 s.c. tumour in mice, 50 mg/kg p.o. 5 days out of 7, vs vehicle group
Experimental: as §1

EMT-6 (breast cancer) = assay: Syngeneic subcutaneous tumour growth inhibition, EMT-6; settings: EMT6 s.c. tumour in mice, 50 mg/kg p.o. 5 days out of 7, vs vehicle group
Experimental: as §1

B16F10small (melanoma) = assay: Syngeneic subcutaneous tumour growth inhibition, B16F10small; settings: B16F10small s.c. tumour in mice, 50 mg/kg p.o. 5 days out of 7, vs vehicle group
Experimental: as §1

A20 (lymphoma) = assay: Syngeneic subcutaneous tumour growth inhibition, A20; settings: A20 s.c. tumour in mice, 50 mg/kg p.o. 5 days out of 7, vs vehicle group
Experimental: as §1

Renca (kidney cancer) = assay: Syngeneic subcutaneous tumour growth inhibition, Renca; settings: Renca s.c. tumour in mice, 50 mg/kg p.o. 5 days out of 7, vs vehicle group
Experimental: as §1

B16BL6 (melanoma) = assay: Syngeneic subcutaneous tumour growth inhibition, B16BL6; settings: B16BL6 s.c. tumour in mice, 50 mg/kg p.o. 5 days out of 7, vs vehicle group
Experimental: as §1

CT26 (colorectal cancer) = assay: Syngeneic subcutaneous tumour growth inhibition, CT26; settings: CT26 s.c. tumour in mice, 50 mg/kg p.o. 5 days out of 7, vs vehicle group
Experimental: as §1

LL/2 (lung cancer) = assay: Syngeneic subcutaneous tumour growth inhibition, LL/2; settings: LL/2 s.c. tumour in mice, 50 mg/kg p.o. 5 days out of 7, vs vehicle group
Experimental: as §1

CC(C)N1CCC(N2CCCN(c3cccc(C(=O)Nc4ccncc4)n3)CC2)CC1 [6-{4-[1-(Propan-2-yl)piperidin-4-yl]-1,4-diazepan-1-yl}-N-(pyridin-4-yl)pyridine-2-carboxamide]
% inhibition of tumour growth relative to control (MBT2 (bladder cancer)): 29.3% | % inhibition of tumour growth relative to control (H22 (liver cancer)): 20.1% | % inhibition of tumour growth relative to control (EMT-6 (breast cancer)): 79.8% | % inhibition of tumour growth relative to control (B16F10small (melanoma)): 0% | % inhibition of tumour growth relative to control (A20 (lymphoma)): 11.6% | % inhibition of tumour growth relative to control (Renca (kidney cancer)): 0% | % inhibition of tumour growth relative to control (B16BL6 (melanoma)): 0% | % inhibition of tumour growth relative to control (CT26 (colorectal cancer)): 32.1% | % inhibition of tumour growth relative to control (LL/2 (lung cancer)): 7.8%
